# From EPA's ToxRefDB 2
# Assays:
# rat [1] = conditions: Combined chronic toxicity/carcinogenicity, sprague dawley, Oral, Feed, dose end: 24 month, group: systemic
# rat [2] = conditions: Prenatal developmental toxicity study, sprague dawley, Oral, Gavage/Intubation, dose end: 15 GD
# rat [3] = conditions: Subchronic oral toxicity in rodents, sprague dawley, Feed, dose end: 90 day, group: systemic
# mouse [4] = conditions: Carcinogenicity, cd1, Oral, Feed, dose end: 18 month, group: systemic
# dog = conditions: Chronic toxicity, beagle, Oral, Feed, dose end: 52 week, group: systemic
# mouse [5] = conditions: Subchronic oral toxicity in rodents, b6c3f1, Water, dose end: 10 week, group: systemic
# mouse [6] = conditions: Carcinogenicity, b6c3f1, Oral, Water, dose end: 96 week, group: systemic
# mouse [7] = conditions: Subchronic oral toxicity in rodents, b6c3f1, Gavage/Intubation, dose end: 16 week, group: systemic
# rat [8] = conditions: Subchronic oral toxicity in rodents, fischer, Gavage/Intubation, dose end: 16 week
# rat [9] = conditions: Carcinogenicity, fischer, Oral, Gavage/Intubation, dose end: 2 year, group: systemic
# mouse [10] = conditions: Carcinogenicity, b6c3f1, Oral, Gavage/Intubation, dose end: 2 year, group: systemic
# [11] = systemic / clinical chemistry / gamma glutamyl transferase (ggt) / gamma glutamyl transferase (ggt)
# [12] = group: developmental, developmental / developmental malformation / bone / enlarged fontanel + developmental / developmental malformation / bone / incomplete …
# [13] = group: maternal, systemic / in life observation / body weight / body weight gain
# [14] = systemic / pathology microscopic / spleen / hyperplasia + systemic / clinical chemistry / calcium / calcium + systemic / clinical chemistry…
# [15] = systemic / pathology microscopic / nerve / degeneration + systemic / pathology microscopic / spinal cord / degeneration + systemic / …
# [16] = systemic / in life observation / clinical signs / ataxia + systemic / pathology microscopic / brain / vacuolization
# [17] = systemic / in life observation / clinical signs / ataxia + systemic / pathology microscopic / brain / vacuolization + systemic / in life …
# [18] = systemic / in life observation / mortality / mortality + systemic / pathology microscopic / kidney / degeneration + systemic / pathology …
# [19] = systemic / organ weight / brain / relative to body weight
# [20] = systemic / organ weight / brain / relative to body weight + systemic / organ weight / heart / relative to body weight + systemic / organ …
# [21] = systemic / pathology microscopic / kidney / cytomegaly + systemic / pathology microscopic / kidney / karyomegaly + systemic / organ weight…
# [22] = group: cholinesterase, cholinesterase / cholinesterase / cholinesterase / cholinesterase (che)
# [23] = group: systemic, systemic / organ weight / kidney / absolute + systemic / organ weight / kidney / relative to body weight + systemic / organ weight / liver…
# [24] = systemic / pathology microscopic / brain / degeneration + systemic / clinical chemistry / alanine aminotransferase (alt/sgpt) / alanine …
# [25] = systemic / pathology microscopic / brain / degeneration + systemic / pathology microscopic / brain / necrosis + systemic / pathology …
# [26] = systemic / pathology microscopic / kidney / karyomegaly
# [27] = systemic / pathology microscopic / kidney / karyomegaly + systemic / pathology microscopic / harderian gland / adenoma
compound,measurement,setting,value
Cc1cc(C)nc(NC(=O)NS(=O)(=O)c2ccccc2C(=O)OC2COC2)n1 [Oxasulfuron],LEL,rat [1]; [11],0.84 mg/kg/day
same,LOAEL,rat [1]; [11],83 mg/kg/day
same,NEL,rat [1]; [11],< 0.84 mg/kg/day
same,NOAEL,rat [1]; systemic / clinical chemistry / gamma glutamyl transferase (ggt) / gamma glutamyl transferase (ggt) + systemic / pathology microscopic / …,8.3 mg/kg/day
same,LEL,rat [2]; [12],1000 mg/kg/day
same,LOAEL,rat [2]; [12],1000 mg/kg/day
same,NEL,rat [2]; [12],300 mg/kg/day
same,NOAEL,rat [2]; [12],300 mg/kg/day
same,LEL,rat [2]; [13],1000 mg/kg/day
same,LOAEL,rat [2]; [13],1000 mg/kg/day
same,NEL,rat [2]; [13],300 mg/kg/day
same,NOAEL,rat [2]; [13],300 mg/kg/day
same,LEL,rat [3]; systemic / clinical chemistry / chloride / chloride + systemic / clinical chemistry / cholesterol / cholesterol,15.3 mg/kg/day
same,LOAEL,rat [3]; systemic / pathology microscopic / spleen / hyperplasia,316 mg/kg/day
same,NEL,rat [3]; [14],0.62 mg/kg/day
same,NOAEL,rat [3]; [14],15.3 mg/kg/day
same,LOAEL,mouse [4]; systemic / pathology microscopic / nerve / degeneration + systemic / pathology microscopic / spinal cord / degeneration,99.1 mg/kg/day
same,LEL,mouse [4]; systemic / pathology microscopic / nerve / degeneration + systemic / pathology microscopic / spinal cord / degeneration + systemic / organ …,99.1 mg/kg/day
same,NEL,mouse [4]; [15],1.5 mg/kg/day
same,NOAEL,mouse [4]; [15],1.5 mg/kg/day
same,LEL,dog; [16],10.7 mg/kg/day
same,LOAEL,dog; [16],10.7 mg/kg/day
same,NEL,dog; [17],1.3 mg/kg/day
same,NOAEL,dog; [17],1.3 mg/kg/day
O=C1O[C@H]([C@H](O)CO)C([O-])=C1O.[Na+] [Sodium erythorbate (1:1)],NEL,mouse [5]; systemic / in life observation / body weight / body weight gain + systemic / in life observation / mortality / mortality + systemic / …,3330 mg/kg/day
same,LEL,mouse [5]; systemic / in life observation / body weight / body weight gain + systemic / pathology microscopic / kidney / degeneration + systemic / …,6670 mg/kg/day
same,LOAEL,mouse [5]; [18],> 13300 mg/kg/day
same,NOAEL,mouse [5]; [18],≥ 13300 mg/kg/day
same,LEL,mouse [6]; [19],1670 mg/kg/day
same,NEL,mouse [6]; [19],< 1670 mg/kg/day
same,LOAEL,mouse [6]; [20],> 6670 mg/kg/day
same,NOAEL,mouse [6]; [20],≥ 6670 mg/kg/day
O=P(OCCCl)(OCCCl)OCCCl [Tris(2-chloroethyl) phosphate],LEL,mouse [7]; systemic / organ weight / liver / absolute + systemic / organ weight / liver / relative to body weight + systemic / organ weight / kidney / …,175 mg/kg/day
same,LOAEL,mouse [7]; systemic / pathology microscopic / kidney / cytomegaly + systemic / pathology microscopic / kidney / karyomegaly,700 mg/kg/day
same,NEL,mouse [7]; [21],88 mg/kg/day
same,NOAEL,mouse [7]; [21],350 mg/kg/day
same,LEL,rat [8]; [22],175 mg/kg/day
same,LOAEL,rat [8]; [22],175 mg/kg/day
same,NEL,rat [8]; [22],88 mg/kg/day
same,NOAEL,rat [8]; [22],88 mg/kg/day
same,LOAEL,"rat [8]; group: systemic, systemic / in life observation / clinical signs / hyperactivity + systemic / pathology microscopic / brain / necrosis",175 mg/kg/day
same,LEL,rat [8]; [23],44 mg/kg/day
same,NEL,rat [8]; [23],22 mg/kg/day
same,NOAEL,rat [8]; [23],88 mg/kg/day
same,NEL,rat [9]; [24],44 mg/kg/day
same,NOAEL,rat [9]; [24],44 mg/kg/day
same,LEL,rat [9]; [25],88 mg/kg/day
same,LOAEL,rat [9]; [25],88 mg/kg/day
same,LOAEL,mouse [10]; [26],175 mg/kg/day
same,NOAEL,mouse [10]; [26],< 175 mg/kg/day
same,LEL,mouse [10]; [27],175 mg/kg/day
same,NEL,mouse [10]; [27],< 175 mg/kg/day
